Measurements reported in patent US10034836B2, “Formulations of guanylate cyclase C agonists and methods of use” (SYNERGY PHARMACEUTICALS, INC., priority 2008, dated 2018).
Where a SMILES comes first, the peptide text is derived from it. Bridges are numbered along the chain shown (N, C = ends).

Key:
[1] = assay type: in vitro ADME; conditions: pH 2
Description: FIG. 1A: Biological activity of SP-304 incubated for varying lengths of time in simulated gastric fluid (SGF). The biological activity of SP-304 was determined by measuring its ability to stimulate cGMP synthesis in T84 cells. Samples incubated for 0, 15, 30, 60, 90 and 120 minutes, respectively, were collected and analyzed for biological activity—with activity of the 0 min sample defined as 100% biological activity. The activities of the other samples are shown as percentage activity relative to the 0 min activity sample. Data points shown are the average of triplicate measurements±SD.
The stability of SP-304 in the presence of simulated gastric fluid (SGF) was determined by biological activity measurements and HPLC analyses (FIGS. 1A & 1B). SP-304 (final concentration of 8.5 mg/ml) was incubated in SGF (Proteose peptone (8.3 g/liter; Difco), D-Glucose (3.5 g/liter; Sigma), NaCl (2.05 g/liter; Sigma), KH2PO4 (0.6 g/liter; Sigma), CaCl2 (0.11 g/liter), KCl (0.37 g/liter; Sigma), Porcine bile (final 1× concentration 0.05 g/liter; Sigma) in PBS, Lysozyme (final 1× concentration 0.10 g/liter; Sigma) in PBS, Pepsin (final 1× concentration 0.0133 g/liter; Sigma) in PBS). SGF was made on the day of the experiment and the pH was adjusted to 2.0±0.1 using HCl or NaOH as necessary. After the pH adjustment, SGF is filter sterilized with 0.22 μm membrane filters. […]

[2] = assay type: in vitro ADME
Description: FIG. 1B: Schematic representation of HPLC chromatographic analyses of SP-304 samples after incubation with SGF for 0 and 120 min, respectively. The arrows show the elution position of SP-304.
The stability of SP-304 in the presence of simulated gastric fluid (SGF) was determined by biological activity measurements and HPLC analyses (FIGS. 1A & 1B). SP-304 (final concentration of 8.5 mg/ml) was incubated in SGF (Proteose peptone (8.3 g/liter; Difco), D-Glucose (3.5 g/liter; Sigma), NaCl (2.05 g/liter; Sigma), KH2PO4 (0.6 g/liter; Sigma), CaCl2 (0.11 g/liter), KCl (0.37 g/liter; Sigma), Porcine bile (final 1× concentration 0.05 g/liter; Sigma) in PBS, Lysozyme (final 1× concentration 0.10 g/liter; Sigma) in PBS, Pepsin (final 1× concentration 0.0133 g/liter; Sigma) in PBS). SGF was made on the day of the experiment and the pH was adjusted to 2.0±0.1 using HCl or NaOH as necessary. After the pH adjustment, SGF is filter sterilized with 0.22 μm membrane filters. SP-304 (final concentration of 8.5 mg/ml) was incubated in SGF at 37° C. for 0, 15, 30, […] and 120 min, respectively, in triplicate aliquots. Following incubations, samples were snap frozen in dry ice then stored in a −80° C. freezer until assayed in duplicate.
Here, aliquots of the two samples were analyzed by HPLC using a previously developed method for analyzing SP-304 peptide. […]

cynomolgus monkeys [3] = assay: Repeated oral dose toxicity study of SP-304 in cynomolgus monkeys (14 days); assay type: in vivo
Description: The primary purpose of this experiment was to evaluate the toxicity and pharmacokinetics of a repeated oral dose of SP-304 in cynomolgus monkeys. […] Monkeys returned to normal stool consistency within 24-48 hours following the last dose of SP-304.

cynomolgus monkeys [4] = assay: Repeated daily oral dose for 28 days in cynomolgus monkeys, stool consistency; conditions: cynomolgus monkey, in vivo, 10 mg/kg
Description: FIG. 19: Determination of SP-304 dose that produced diarrhea in monkeys. Two groups of monkeys, male and female, were treated with a single dose of SP-304 per day continuously for 28 days (for each group, 0 and 75 mg/kg, n=5; 1, 10 mg/kg, n=4). Stool consistency and bowel frequency were noted every day. Results are presented as cumulative score for 28 days. The scoring used for stool consistency was as follows: 0: No stool, 1: Normal stool, 2: Loose/mushy stool and 3: Diarrhea/watery stool.
Male (n=4) and female (n=4) monkeys were given a daily dose (1 or 10 or 75 mg/kg body weight) of SP-304 repeatedly for 28 days. Effect of treatment on stool consistency was recorded three times a day. […] Therefore, SP-304 was used at 10 mg/kg body weight in the subsequent experiments.

[5] = test system: healthy male and female subjects; conditions: in vivo, po
[6] = test system: healthy male and female subjects; assay: Phase 1 single ascending oral dose study, safety and tolerability; conditions: healthy volunteers

Structure (SMILES): CC(C)C[C@H](NC(=O)[C@@H]1CSSC[C@@H]2NC(=O)[C@H](CC(C)C)NC(=O)[C@H](CCC(=O)O)NC(=O)[C@@H](NC(=O)[C@H](CCC(=O)O)NC(=O)[C@H](CC(=O)O)NC(=O)[C@@H](N)CC(N)=O)CSSC[C@H](NC(=O)[C@H](C)NC(=O)[C@H](C(C)C)NC(=O)[C@H](CC(N)=O)NC(=O)[C@H](C(C)C)NC2=O)C(=O)N[C@@H]([C@@H](C)O)C(=O)NCC(=O)N1)C(=O)O [SP-304, Asn^1-Asp^2-Glu^3-Cys^4-Glu^5-Leu^6-Cys^7-Val^8-Asn^9-Val^10-Ala^11-Cys^12-Thr^13-Gly^14-Cys^15-Leu^16] (H-NDECELCVNVACTGCL-OH; disulfide 4-12, 7-15)
- activity after exposure to the acidic pH of the SGF [1]: unaltered
- biological activity after incubation with SGF (breakdown in SGF) [1]: resistant to breakdown in SGF
- major HPLC peak following incubation with SGF [2]: did not change
- time to return to normal stool consistency following the last dose (cynomolgus monkeys [3]; cynomolgus monkey, in vivo): 24 to 48 h
- tolerability of repeated oral dose (cynomolgus monkeys [3]; daily dose of 250 mg for 14 consecutive days, cynomolgus monkeys): well tolerated
- effect on stool consistency in females (cynomolgus monkeys [4]): severe diarrhea consistently
- most prevalent adverse event: grade I diarrhea (CTCAE) [5]: 12.7%
- severe adverse events (SAEs) ([6]; 0.1 to 48.6 mg single oral dose): no severe adverse events
- tolerability of single oral dose ([6]; 0.1 to 48.6 mg): well-tolerated
